# Measurements as given in patent publication US7659400B2, “Radiolabelled benzamide analogues, their synthesis and use in diagnostic imaging” (Washington University, priority 2003, dated 2010).
# Changes are numbered by the printed parent chain. Values joined by “and” are separate entries in the source; they are usually repeats but may differ in a detail not shown here. Equal entries are not always repeated.
# Key:
# σ1 receptors [1] = target: σ1 receptors (Homo sapiens, UniProt Q99720); conditions: cited from earlier work
# Chain of σ1 receptors (Homo sapiens, UniProt Q99720) (Q99720 whole entry): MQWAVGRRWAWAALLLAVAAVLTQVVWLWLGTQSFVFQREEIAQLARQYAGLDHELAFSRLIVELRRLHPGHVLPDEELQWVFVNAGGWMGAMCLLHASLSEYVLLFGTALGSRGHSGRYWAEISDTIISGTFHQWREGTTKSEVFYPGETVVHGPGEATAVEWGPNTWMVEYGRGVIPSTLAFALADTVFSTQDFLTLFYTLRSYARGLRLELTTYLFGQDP
# σ2 receptors [2] = target: σ2 receptors (Homo sapiens, UniProt Q5BJF2); conditions: cited from earlier work
# Chain of σ2 receptors (Homo sapiens, UniProt Q5BJF2) (Q5BJF2 whole entry): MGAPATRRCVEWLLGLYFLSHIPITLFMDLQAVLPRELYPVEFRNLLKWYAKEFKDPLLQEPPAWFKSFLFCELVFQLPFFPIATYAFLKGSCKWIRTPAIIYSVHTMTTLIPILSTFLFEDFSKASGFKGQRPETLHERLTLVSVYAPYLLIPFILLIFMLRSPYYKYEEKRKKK
# σ2 receptors [3] = target: T1, σ2 receptors (Mus musculus, UniProt Q8VD00); test: Blocking study: co-injection of 1 mg/kg YUN-143 in EMT-6 tumor-bearing mice; assay type: in vivo; conditions: 1 mg/kg YUN-143, 1 h post-injection
# T1 construct: from tissue; host or cells: EMT-6 tumours in female Balb/c mice, in vivo
# T1 sequence (Q8VD00 1-176): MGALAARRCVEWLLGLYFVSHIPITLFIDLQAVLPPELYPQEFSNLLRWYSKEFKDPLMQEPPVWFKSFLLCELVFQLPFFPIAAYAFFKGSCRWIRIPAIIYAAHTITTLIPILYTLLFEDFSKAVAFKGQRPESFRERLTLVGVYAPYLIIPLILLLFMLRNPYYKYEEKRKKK
# Protocol: These blocking studies in tumor-bearing mice were conducted by co-injecting 1 mg/kg of cold N-(4-fluorobenzyl) piperidinyl-4-(3-bromophenyl)acetamide (YUN-143) with [^18F]3c or [^18F]3f.
# EMT-6 tumors = test: Biodistribution of 18F-labeled ligands in mice bearing EMT-6 tumors; assay type: in vivo, female Balb/c mice; conditions: for clearance from the blood (in words): mouse, in vivo
# Protocol: This example illustrates in vivo evaluation of compounds of the present teachings. All animal experiments were conducted in compliance with the Guidelines for the Care and Use of Research Animals established by Washington University's Animal Studies Committee. EMT-6 mouse mammary adenocarcinoma cells (5×10^5 cells in 100 uL of phosphate-buffered saline) were implanted subcutaneously in the scapular region of female Balb/c mice (˜2-month old and 17-22 g; Charles River Laboratories). […] Groups of at least 4 mice were used for each time point. […] After counting, the percentage of the injected dose per gram of tissue (%ID/g) was calculated. The tumor/organ ratios were calculated by dividing the %ID/g of the tumor by the %ID/g of each organ.
# σ2 receptors [4] = target: T2, σ2 receptors (Rattus norvegicus, UniProt Q5U3Y7); test: σ2 receptor binding assay, [^3H]DTG in the presence of (+)-pentazocine, rat liver membrane homogenates
# T2 construct: conducted using rat liver membrane homogenates; from tissue; host or cells: rat liver membrane homogenates
# T2 sequence (Q5U3Y7 1-176): T1 sequence (Q8VD00 1-176) with L4V, A5T, L26M, V33L, L71F, A105V, L118I, V127I, S136N, Y169F
# Protocol: The incubation time was 120 min at room temperature. […] All other procedures were identical to those described for the σ1 receptor binding assay above.
# σ1 receptors [5] = target: T3, σ1 receptors (Cavia porcellus, UniProt Q60492)
# T3 sequence (Q60492 whole entry): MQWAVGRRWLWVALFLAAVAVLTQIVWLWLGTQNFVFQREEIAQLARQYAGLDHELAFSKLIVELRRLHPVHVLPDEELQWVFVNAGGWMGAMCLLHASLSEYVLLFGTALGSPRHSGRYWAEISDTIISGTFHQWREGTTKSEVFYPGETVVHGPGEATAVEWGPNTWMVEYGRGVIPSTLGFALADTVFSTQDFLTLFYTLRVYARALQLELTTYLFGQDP
# Protocol: (§1) In these assays, the novel sigma ligands were dissolved in N,N-dimethylformamide (DMF), DMSO or ethanol, and then diluted in 50 mM Tris-HCl buffer containing 150 mM NaCl and 100 mM EDTA at pH 7.4 prior to performing the σ1 and σ2 receptor binding assays. […] The samples were harvested and filtered rapidly through a 96-well fiber glass filter plate (millipore, Billerica, Mass.) that had been presoaked with 100 μL of 50 mM Tris-HCl buffer at pH 8.0 for 1 h.
# (§2) The Ki values were determine from Scatchard plots.
# [6] = Log D calculated using the program ACD/log D; conditions: spacer group four carbons (3c) versus two carbons (3a)
# σ1 receptors [7] = target: T3, σ1 receptors; test: σ1 receptor binding assay, [^3H](+)-pentazocine, guinea pig brain membrane homogenates; conditions: spacer group four carbons (3c) versus two carbons (3a)
# Protocol: as §1, §2
# [8] = 60 min (1 h) after i.v. injection
# [9] = 120 min (2 h) after i.v. injection
smiles,measurement,setting,value
"O=C(Cc1cccc(Br)c1)NC1CCN(Cc2ccc(F)cc2)CC1 [YUN-143, N-(4-fluorobenzyl)piperidinyl-4-(3-bromophenyl) acetamide]",affinity for σ1 receptors (in words),σ1 receptors [1],high affinity
same,affinity for σ2 receptors (in words),σ2 receptors [2],high affinity
COc1cc2c(cc1OC)CN(CCCCNC(=O)c1cc(C)ccc1OCC[18F])CC2 [[^18F]3c],decrease in the tumor:fat ratio on co-injection of YUN-143,σ2 receptors [3],~50%
same,decrease in the tumor:muscle ratio on co-injection of YUN-143,σ2 receptors [3],~50%
same,Biodistribution: blood,EMT-6 tumors; 5 min after i.v. injection,2.49 ± 0.49 %ID/g
same,Biodistribution: bone,EMT-6 tumors; 5 min after i.v. injection,2.49 ± 0.19 %ID/g
same,Biodistribution: brain,EMT-6 tumors; 5 min after i.v. injection,0.76 ± 0.06 %ID/g
same,Biodistribution: fat,EMT-6 tumors; 5 min after i.v. injection,1.95 ± 0.33 %ID/g
same,Biodistribution: heart,EMT-6 tumors; 5 min after i.v. injection,3.73 ± 0.15 %ID/g
same,Biodistribution: kidney,EMT-6 tumors; 5 min after i.v. injection,29.18 ± 1.92 %ID/g
same,Biodistribution: liver,EMT-6 tumors; 5 min after i.v. injection,23.33 ± 4.22 %ID/g
same,Biodistribution: lung,EMT-6 tumors; 5 min after i.v. injection,10.26 ± 0.71 %ID/g
same,Biodistribution: muscle,EMT-6 tumors; 5 min after i.v. injection,1.86 ± 0.08 %ID/g
same,Biodistribution: tumor (tumor uptake),EMT-6 tumors; 5 min after i.v. injection,3.67 ± 0.45 %ID/g
same,Biodistribution: blood,EMT-6 tumors; 30 min after i.v. injection,1.16 ± 0.10 %ID/g
same,Biodistribution: bone,EMT-6 tumors; 30 min after i.v. injection,0.96 ± 0.15 %ID/g
same,Biodistribution: brain,EMT-6 tumors; 30 min after i.v. injection,0.27 ± 0.05 %ID/g
same,Biodistribution: fat,EMT-6 tumors; 30 min after i.v. injection,0.59 ± 0.13 %ID/g
same,Biodistribution: heart,EMT-6 tumors; 30 min after i.v. injection,1.15 ± 0.06 %ID/g
same,Biodistribution: kidney,EMT-6 tumors; 30 min after i.v. injection,6.86 ± 0.45 %ID/g
same,Biodistribution: liver,EMT-6 tumors; 30 min after i.v. injection,10.51 ± 0.87 %ID/g
same,Biodistribution: lung,EMT-6 tumors; 30 min after i.v. injection,2.36 ± 0.19 %ID/g
same,Biodistribution: muscle,EMT-6 tumors; 30 min after i.v. injection,0.70 ± 0.19 %ID/g
same,Biodistribution: tumor (tumor uptake),EMT-6 tumors; 30 min after i.v. injection,2.54 ± 0.27 %ID/g
same,Biodistribution: tumor (tumor uptake),EMT-6 tumors; [8],1.14 ± 0.10 %ID/g
same,Biodistribution: blood,EMT-6 tumors; 60 min after i.v. injection,0.56 ± 0.08 %ID/g
same,Biodistribution: bone,EMT-6 tumors; 60 min after i.v. injection,0.55 ± 0.07 %ID/g
same,Biodistribution: brain,EMT-6 tumors; 60 min after i.v. injection,0.18 ± 0.03 %ID/g
same,Biodistribution: fat,EMT-6 tumors; 60 min after i.v. injection,0.22 ± 0.04 %ID/g
same,Biodistribution: heart,EMT-6 tumors; 60 min after i.v. injection,0.55 ± 0.07 %ID/g
same,Biodistribution: kidney,EMT-6 tumors; 60 min after i.v. injection,2.51 ± 0.51 %ID/g
same,Biodistribution: liver,EMT-6 tumors; 60 min after i.v. injection,4.14 ± 0.55 %ID/g
same,Biodistribution: lung,EMT-6 tumors; 60 min after i.v. injection,0.88 ± 0.12 %ID/g
same,Biodistribution: muscle,EMT-6 tumors; 60 min after i.v. injection,0.34 ± 0.05 %ID/g
same,Biodistribution: tumor (tumor uptake),EMT-6 tumors; [9],0.64 %ID/g and 0.64 ± 0.10 %ID/g
same,Biodistribution: blood,EMT-6 tumors; 120 min after i.v. injection,0.35 ± 0.05 %ID/g
same,Biodistribution: bone,EMT-6 tumors; 120 min after i.v. injection,0.45 ± 0.11 %ID/g
same,Biodistribution: brain,EMT-6 tumors; 120 min after i.v. injection,0.12 ± 0.02 %ID/g
same,Biodistribution: fat,EMT-6 tumors; 120 min after i.v. injection,0.08 ± 0.02 %ID/g
same,Biodistribution: heart,EMT-6 tumors; 120 min after i.v. injection,0.27 ± 0.04 %ID/g
same,Biodistribution: kidney,EMT-6 tumors; 120 min after i.v. injection,0.87 ± 0.13 %ID/g
same,Biodistribution: liver,EMT-6 tumors; 120 min after i.v. injection,2.05 ± 0.43 %ID/g
same,Biodistribution: lung,EMT-6 tumors; 120 min after i.v. injection,0.43 ± 0.07 %ID/g
same,Biodistribution: muscle,EMT-6 tumors; 120 min after i.v. injection,0.24 ± 0.08 %ID/g
same,tumor:fat ratio,EMT-6 tumors; 2 h after i.v. injection,~8
same,clearance from the blood (in words),EMT-6 tumors,rapid clearance from the blood
COc1cc2c(cc1OC)CN(CCCCNC(=O)c1cc(I)cc(OC)c1OCC[18F])CC2 [[^18F]3f],decrease in the tumor:fat ratio on co-injection of YUN-143,σ2 receptors [3],~50%
same,decrease in the tumor:muscle ratio on co-injection of YUN-143,σ2 receptors [3],~50%
same,Biodistribution: blood,EMT-6 tumors; 5 min after i.v. injection,1.82 ± 0.25 %ID/g
same,Biodistribution: bone,EMT-6 tumors; 5 min after i.v. injection,2.23 ± 0.56 %ID/g
same,Biodistribution: brain,EMT-6 tumors; 5 min after i.v. injection,0.71 ± 0.09 %ID/g
same,Biodistribution: fat,EMT-6 tumors; 5 min after i.v. injection,4.13 ± 0.86 %ID/g
same,Biodistribution: heart,EMT-6 tumors; 5 min after i.v. injection,5.60 ± 0.45 %ID/g
same,Biodistribution: kidney,EMT-6 tumors; 5 min after i.v. injection,19.98 ± 1.66 %ID/g
same,Biodistribution: liver,EMT-6 tumors; 5 min after i.v. injection,15.21 ± 2.21 %ID/g
same,Biodistribution: lung,EMT-6 tumors; 5 min after i.v. injection,18.47 ± 3.07 %ID/g
same,Biodistribution: muscle,EMT-6 tumors; 5 min after i.v. injection,2.50 ± 0.33 %ID/g
same,Biodistribution: tumor (tumor uptake),EMT-6 tumors; 5 min after i.v. injection,3.05 ± 0.43 %ID/g
same,Biodistribution: blood,EMT-6 tumors; 30 min after i.v. injection,1.23 ± 0.28 %ID/g
same,Biodistribution: bone,EMT-6 tumors; 30 min after i.v. injection,2.01 ± 0.53 %ID/g
same,Biodistribution: brain,EMT-6 tumors; 30 min after i.v. injection,0.27 ± 0.04 %ID/g
same,Biodistribution: fat,EMT-6 tumors; 30 min after i.v. injection,1.36 ± 0.50 %ID/g
same,Biodistribution: heart,EMT-6 tumors; 30 min after i.v. injection,1.54 ± 0.31 %ID/g
same,Biodistribution: kidney,EMT-6 tumors; 30 min after i.v. injection,7.73 ± 2.25 %ID/g
same,Biodistribution: liver,EMT-6 tumors; 30 min after i.v. injection,10.73 ± 2.98 %ID/g
same,Biodistribution: lung,EMT-6 tumors; 30 min after i.v. injection,3.75 ± 0.58 %ID/g
same,Biodistribution: muscle,EMT-6 tumors; 30 min after i.v. injection,0.73 ± 0.14 %ID/g
same,Biodistribution: tumor (tumor uptake),EMT-6 tumors; 30 min after i.v. injection,3.11 ± 0.16 %ID/g
same,Biodistribution: tumor (tumor uptake),EMT-6 tumors; [8],2.15 %ID/g and 2.15 ± 0.25 %ID/g
same,Biodistribution: blood,EMT-6 tumors; 60 min after i.v. injection,0.65 ± 0.09 %ID/g
same,Biodistribution: bone,EMT-6 tumors; 60 min after i.v. injection,0.93 ± 0.16 %ID/g
same,Biodistribution: brain,EMT-6 tumors; 60 min after i.v. injection,0.14 ± 0.02 %ID/g
same,Biodistribution: fat,EMT-6 tumors; 60 min after i.v. injection,0.47 ± 0.07 %ID/g
same,Biodistribution: heart,EMT-6 tumors; 60 min after i.v. injection,0.69 ± 0.06 %ID/g
same,Biodistribution: kidney,EMT-6 tumors; 60 min after i.v. injection,3.50 ± 0.80 %ID/g
same,Biodistribution: liver,EMT-6 tumors; 60 min after i.v. injection,5.57 ± 0.31 %ID/g
same,Biodistribution: lung,EMT-6 tumors; 60 min after i.v. injection,1.51 ± 0.13 %ID/g
same,Biodistribution: muscle,EMT-6 tumors; 60 min after i.v. injection,0.40 ± 0.07 %ID/g
same,Biodistribution: tumor (tumor uptake),EMT-6 tumors; [9],1.15 %ID/g and 1.15 ± 0.23 %ID/g
same,Biodistribution: blood,EMT-6 tumors; 120 min after i.v. injection,0.28 ± 0.01 %ID/g
same,Biodistribution: bone,EMT-6 tumors; 120 min after i.v. injection,0.59 ± 0.09 %ID/g
same,Biodistribution: brain,EMT-6 tumors; 120 min after i.v. injection,0.08 ± 0.01 %ID/g
same,Biodistribution: fat,EMT-6 tumors; 120 min after i.v. injection,0.17 ± 0.05 %ID/g
same,Biodistribution: heart,EMT-6 tumors; 120 min after i.v. injection,0.39 ± 0.04 %ID/g
same,Biodistribution: kidney,EMT-6 tumors; 120 min after i.v. injection,1.34 ± 0.10 %ID/g
same,Biodistribution: liver,EMT-6 tumors; 120 min after i.v. injection,2.61 ± 0.69 %ID/g
same,Biodistribution: lung,EMT-6 tumors; 120 min after i.v. injection,0.74 ± 0.03 %ID/g
same,Biodistribution: muscle,EMT-6 tumors; 120 min after i.v. injection,0.15 ± 0.01 %ID/g
same,tumor:fat ratio,EMT-6 tumors; 2 h after i.v. injection,~7
same,tumor:muscle ratio,EMT-6 tumors; 2 h after i.v. injection,~8
same,clearance from the blood (in words),EMT-6 tumors,rapid clearance from the blood
"COc1cc2c(cc1OC)CN(CCCCNC(=O)c1cc(C)ccc1OCCF)CC2 [compound 3c, N-[6,7-dimethoxy-3,4-dihydro-1H-isoquinolin-2-yl-butyl]-2-(2-fluoro-ethoxy)-5-methyl-benzamide]",σ1:σ2 Ratio,σ2 receptors [4]; ratio of Ki values,48
same,increase in the affinity for σ2 receptors relative to 3a,σ2 receptors [4]; spacer group four carbons (3c) versus two carbons (3a),15 fold
same,Ki,σ1 receptors [5],330 ± 25 nM
same,increase in the log D value relative to 3a,[6],0.5 unit
same,increase in the affinity for σ1 receptors relative to 3a,σ1 receptors [7],69 fold
